From patent US8192962B2, “Processes for detecting toxic substances” (Daikin Industries, Ltd., priority 2001, dated 2012)

Tested on: Unknown protein yeast genes
Assay: DNA chip mRNA expression in yeast, unknown protein yeast genes (Table 1)
Format: cell-based, Saccharomyces cerevisiae S288C
Method in brief: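 S. cerevisiae S288C grown at 25° C in YPD were exposed in log phase for two hours to one toxic chemical at a growth-inhibiting, non-lethal concentration; untreated cells served as control. Poly(A) mRNA was reverse-transcribed with Cy3/Cy5-dUTP and hybridized to a whole-genome yeast DNA chip at 65° C for over 12 hours; values are fluorescence ratios versus untreated.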

## Oc1cc(Cl)c(Cl)cc1Cl [(6), 2,4,5-trichlorophenol]
Yeast gene YAL053W, incubated two hours with chemical substance
  The level of expressed mRNA in the presence of chemical substance/The level of expressed mRNA in the absence of chemical substance: 1.1
Yeast gene YBL048W
  The level of expressed mRNA in the presence of chemical substance/The level of expressed mRNA in the absence of chemical substance: 2.0
Yeast gene YBL107C
  The level of expressed mRNA in the presence of chemical substance/The level of expressed mRNA in the absence of chemical substance: 1.1
Yeast gene YDL072C, incubated two hours with chemical substance
  The level of expressed mRNA in the presence of chemical substance/The level of expressed mRNA in the absence of chemical substance: 1.5
Yeast gene YDL146W
  The level of expressed mRNA in the presence of chemical substance/The level of expressed mRNA in the absence of chemical substance: 0.7
Yeast gene YDL204W, incubated two hours with chemical substance
  The level of expressed mRNA in the presence of chemical substance/The level of expressed mRNA in the absence of chemical substance: 5.6
Yeast gene YDL222C, incubated two hours with chemical substance
  The level of expressed mRNA in the presence of chemical substance/The level of expressed mRNA in the absence of chemical substance: 1.4
Yeast gene YDR057W
  The level of expressed mRNA in the presence of chemical substance/The level of expressed mRNA in the absence of chemical substance: 0.7
Yeast gene YDR330W, incubated two hours with chemical substance
  The level of expressed mRNA in the presence of chemical substance/The level of expressed mRNA in the absence of chemical substance: 2.3
Yeast gene YDR411C, incubated two hours with chemical substance
  The level of expressed mRNA in the presence of chemical substance/The level of expressed mRNA in the absence of chemical substance: 0.8
Yeast gene YDR476C
  The level of expressed mRNA in the presence of chemical substance/The level of expressed mRNA in the absence of chemical substance: 3.1
Yeast gene YDR511W, incubated two hours with chemical substance
  The level of expressed mRNA in the presence of chemical substance/The level of expressed mRNA in the absence of chemical substance: 2.0
Yeast gene YDR545W, incubated two hours with chemical substance
  The level of expressed mRNA in the presence of chemical substance/The level of expressed mRNA in the absence of chemical substance: 1.0
Yeast gene YEL001C, incubated two hours with chemical substance
  The level of expressed mRNA in the presence of chemical substance/The level of expressed mRNA in the absence of chemical substance: 1.3
Yeast gene YER004W, incubated two hours with chemical substance
  The level of expressed mRNA in the presence of chemical substance/The level of expressed mRNA in the absence of chemical substance: 1.2
Yeast gene YER035W, incubated two hours with chemical substance
  The level of expressed mRNA in the presence of chemical substance/The level of expressed mRNA in the absence of chemical substance: 0.9
Yeast gene YER079W, incubated two hours with chemical substance
  The level of expressed mRNA in the presence of chemical substance/The level of expressed mRNA in the absence of chemical substance: 1.5
Yeast gene YER106W, incubated two hours with chemical substance
  The level of expressed mRNA in the presence of chemical substance/The level of expressed mRNA in the absence of chemical substance: 1.1
Yeast gene YER158C, incubated two hours with chemical substance
  The level of expressed mRNA in the presence of chemical substance/The level of expressed mRNA in the absence of chemical substance: 0.7
Yeast gene YER163C, incubated two hours with chemical substance
  The level of expressed mRNA in the presence of chemical substance/The level of expressed mRNA in the absence of chemical substance: 2.0
Yeast gene YER175C, incubated two hours with chemical substance
  The level of expressed mRNA in the presence of chemical substance/The level of expressed mRNA in the absence of chemical substance: 0.8
Yeast gene YFL006W, incubated two hours with chemical substance
  The level of expressed mRNA in the presence of chemical substance/The level of expressed mRNA in the absence of chemical substance: 1.2
Yeast gene YFL010C, incubated two hours with chemical substance
  The level of expressed mRNA in the presence of chemical substance/The level of expressed mRNA in the absence of chemical substance: 1.9
Yeast gene YFL024C
  The level of expressed mRNA in the presence of chemical substance/The level of expressed mRNA in the absence of chemical substance: 2.0
Yeast gene YFL032W, incubated two hours with chemical substance
  The level of expressed mRNA in the presence of chemical substance/The level of expressed mRNA in the absence of chemical substance: 0.6
Yeast gene YFL046W
  The level of expressed mRNA in the presence of chemical substance/The level of expressed mRNA in the absence of chemical substance: 0.7
Yeast gene YGL037C, incubated two hours with chemical substance
  The level of expressed mRNA in the presence of chemical substance/The level of expressed mRNA in the absence of chemical substance: 1.3
Yeast gene YGL047W, incubated two hours with chemical substance
  The level of expressed mRNA in the presence of chemical substance/The level of expressed mRNA in the absence of chemical substance: 1.5
Yeast gene YGL053W, incubated two hours with chemical substance
  The level of expressed mRNA in the presence of chemical substance/The level of expressed mRNA in the absence of chemical substance: 2.7
Yeast gene YGL059W
  The level of expressed mRNA in the presence of chemical substance/The level of expressed mRNA in the absence of chemical substance: 0.7
Yeast gene YGL121C
  The level of expressed mRNA in the presence of chemical substance/The level of expressed mRNA in the absence of chemical substance: 9.8
Yeast gene YGL199C, incubated two hours with chemical substance
  The level of expressed mRNA in the presence of chemical substance/The level of expressed mRNA in the absence of chemical substance: 0.7
Yeast gene YGR024C
  The level of expressed mRNA in the presence of chemical substance/The level of expressed mRNA in the absence of chemical substance: 0.7
Yeast gene YGR101W, incubated two hours with chemical substance
  The level of expressed mRNA in the presence of chemical substance/The level of expressed mRNA in the absence of chemical substance: 0.9
Yeast gene YGR110W
  The level of expressed mRNA in the presence of chemical substance/The level of expressed mRNA in the absence of chemical substance: 0.9
Yeast gene YGR130C, incubated two hours with chemical substance
  The level of expressed mRNA in the presence of chemical substance/The level of expressed mRNA in the absence of chemical substance: 0.9
Yeast gene YGR154C, incubated two hours with chemical substance
  The level of expressed mRNA in the presence of chemical substance/The level of expressed mRNA in the absence of chemical substance: 1.4
Yeast gene YGR221C, incubated two hours with chemical substance
  The level of expressed mRNA in the presence of chemical substance/The level of expressed mRNA in the absence of chemical substance: 3.0
Yeast gene YHL042W
  The level of expressed mRNA in the presence of chemical substance/The level of expressed mRNA in the absence of chemical substance: 0.7
Yeast gene YHR029C
  The level of expressed mRNA in the presence of chemical substance/The level of expressed mRNA in the absence of chemical substance: 2.7
Yeast gene YHR138C, incubated two hours with chemical substance
  The level of expressed mRNA in the presence of chemical substance/The level of expressed mRNA in the absence of chemical substance: 3.8
Yeast gene YHR199C, incubated two hours with chemical substance
  The level of expressed mRNA in the presence of chemical substance/The level of expressed mRNA in the absence of chemical substance: 1.1
Yeast gene YIL023C, incubated two hours with chemical substance
  The level of expressed mRNA in the presence of chemical substance/The level of expressed mRNA in the absence of chemical substance: 0.9
Yeast gene YIL041W, incubated two hours with chemical substance
  The level of expressed mRNA in the presence of chemical substance/The level of expressed mRNA in the absence of chemical substance: 1.0
Yeast gene YIL087C, incubated two hours with chemical substance
  The level of expressed mRNA in the presence of chemical substance/The level of expressed mRNA in the absence of chemical substance: 4.1
Yeast gene YJL057C, incubated two hours with chemical substance
  The level of expressed mRNA in the presence of chemical substance/The level of expressed mRNA in the absence of chemical substance: 1.4
Yeast gene YJL066C, incubated two hours with chemical substance
  The level of expressed mRNA in the presence of chemical substance/The level of expressed mRNA in the absence of chemical substance: 1.4
Yeast gene YJL082W, incubated two hours with chemical substance
  The level of expressed mRNA in the presence of chemical substance/The level of expressed mRNA in the absence of chemical substance: 0.2
Yeast gene YJL144W
  The level of expressed mRNA in the presence of chemical substance/The level of expressed mRNA in the absence of chemical substance: 1.7
Yeast gene YJL151C, incubated two hours with chemical substance
  The level of expressed mRNA in the presence of chemical substance/The level of expressed mRNA in the absence of chemical substance: 2.2
Yeast gene YJL152W, incubated two hours with chemical substance
  The level of expressed mRNA in the presence of chemical substance/The level of expressed mRNA in the absence of chemical substance: 1.5
Yeast gene YJL161W, incubated two hours with chemical substance
  The level of expressed mRNA in the presence of chemical substance/The level of expressed mRNA in the absence of chemical substance: 8.0
Yeast gene YJL163C
  The level of expressed mRNA in the presence of chemical substance/The level of expressed mRNA in the absence of chemical substance: 2.8
Yeast gene YJL171C, incubated two hours with chemical substance
  The level of expressed mRNA in the presence of chemical substance/The level of expressed mRNA in the absence of chemical substance: 2.7
Yeast gene YJR008W, incubated two hours with chemical substance
  The level of expressed mRNA in the presence of chemical substance/The level of expressed mRNA in the absence of chemical substance: 2.2
Yeast gene YJR054W, incubated two hours with chemical substance
  The level of expressed mRNA in the presence of chemical substance/The level of expressed mRNA in the absence of chemical substance: 0.7
Yeast gene YKL071W
  The level of expressed mRNA in the presence of chemical substance/The level of expressed mRNA in the absence of chemical substance: 18.6
